# ChEMBL document CHEMBL2086254, “Synthesis and identification of novel indolo[2,3-a]pyrimido[5,4-c]carbazoles as a new class of anti-cancer agents” (Eur J Med Chem, 2012)
# Assays:
# Assay type in all cases: functional
# [1] = system: SR; test: Cytotoxicity against human SR cells after 48 hrs by SRB assay
# [2] = system: HL-60; test: Cytotoxicity against human HL60 cells after 48 hrs by SRB assay; conditions: HL-60, 48 h
# [3] = system: K562; test: Cytotoxicity against human K562 cells after 48 hrs by SRB assay; conditions: K562, 48 h
# [4] = system: EKVX; test: Cytotoxicity against human EKVX cells after 48 hrs by SRB assay
# [5] = system: HOP-62; test: Cytotoxicity against human HOP62 cells after 48 hrs by SRB assay; conditions: HOP-62, 48 h
# [6] = system: NCI-H226; test: Cytotoxicity against human NCI-H226 cells after 48 hrs by SRB assay; conditions: NCI-H226, 48 h
# [7] = system: BT-549; test: Cytotoxicity against human BT549 cells after 48 hrs by SRB assay; conditions: BT-549, 48 h
# [8] = system: NCI-H522; test: Cytotoxicity against human NCI-H522 cells after 48 hrs by SRB assay; conditions: NCI-H522, 48 h
# [9] = system: COLO 205; test: Cytotoxicity against human COLO205 cells after 48 hrs by SRB assay; conditions: COLO 205, 48 h
# [10] = system: HCC 2998; test: Cytotoxicity against human HCC2998 cells after 48 hrs by SRB assay; conditions: HCC 2998, 48 h
# [11] = system: SW-620; test: Cytotoxicity against human SW620 cells after 48 hrs by SRB assay; conditions: SW-620, 48 h
# [12] = system: SF-268; test: Cytotoxicity against human SF268 cells after 48 hrs by SRB assay; conditions: SF-268, 48 h
# [13] = system: SF-539; test: Cytotoxicity against human SF539 cells after 48 hrs by SRB assay; conditions: SF-539, 48 h
# [14] = system: SNB-19; test: Cytotoxicity against human SNB19 cells after 48 hrs by SRB assay; conditions: SNB-19, 48 h
# [15] = system: SNB-75; test: Cytotoxicity against human SNB75 cells after 48 hrs by SRB assay; conditions: SNB-75, 48 h
# [16] = system: LOX IMVI; test: Cytotoxicity in human LOXIMVI cells after 48 hrs by SRB assay
# [17] = system: UACC-62; test: Cytotoxicity against human UACC62 cells after 48 hrs by SRB assay; conditions: UACC-62, 48 h
# [18] = system: OVCAR-4; test: Cytotoxicity against human OVCAR4 cells after 48 hrs by SRB assay; conditions: OVCAR-4, 48 h
# [19] = system: OVCAR-8; test: Cytotoxicity against human OVCAR8 cells after 48 hrs by SRB assay; conditions: OVCAR-8, 48 h
# [20] = system: RXF 393; test: Cytotoxicity against human RXF393 cells after 48 hrs by SRB assay; conditions: RXF 393, 48 h
# [21] = system: TK-10; test: Cytotoxicity against human TK10 cells after 48 hrs by SRB assay; conditions: TK-10, 48 h
# [22] = system: DU-145; test: Cytotoxicity against human DU145 cells after 48 hrs by SRB assay; conditions: DU-145, 48 h
# [23] = system: NCI-H460; test: Cytotoxicity against human NCI-H460 cells after 48 hrs by SRB assay; conditions: NCI-H460, 48 h
# [24] = system: HCT-116; test: Cytotoxicity against human HCT116 cells after 48 hrs by SRB assay; conditions: HCT-116, 48 h
# [25] = system: HCT-15; test: Cytotoxicity against human HCT15 cells after 48 hrs by SRB assay; conditions: HCT-15, 48 h
# [26] = system: KM12; test: Cytotoxicity against human KM12 cells after 48 hrs by SRB assay; conditions: KM12, 48 h
# [27] = system: SF-295; test: Cytotoxicity against human SF295 cells after 48 hrs by SRB assay; conditions: SF-295, 48 h
# [28] = system: M14; test: Cytotoxicity against human M14 cells after 48 hrs by SRB assay; conditions: M14, 48 h
# [29] = system: MDA-MB-435; test: Cytotoxicity against human MDA-MB-435 cells after 48 hrs by SRB assay; conditions: MDA-MB-435, 48 h
# [30] = system: SK-OV-3; test: Cytotoxicity against human SKOV3 cells after 48 hrs by SRB assay; conditions: SK-OV-3, 48 h
# [31] = system: CAKI-1; test: Cytotoxicity against human Caki1 cells after 48 hrs by SRB assay; conditions: CAKI-1, 48 h
# [32] = system: UO-31; test: Cytotoxicity against human UO31 cells after 48 hrs by SRB assay; conditions: UO-31, 48 h
# [33] = system: SK-MEL-5; test: Cytotoxicity against human SK-MEL-5 cells after 48 hrs by SRB assay; conditions: SK-MEL-5, 48 h
# [34] = system: HT-29; test: Cytotoxicity against human HT-29 cells after 48 hrs by SRB assay; conditions: HT-29, 48 h
# [35] = read-out: LC50 (the source's name)
smiles,measurement,setting,value
Cn1c2ccccc2c2c3nc(N)[nH]c(=O)c3c3c4ccccc4n(C)c3c21,GI50,[1],4.61 µM
same,TGI,[1],41.8 µM
same,CC50,[1]; [35],> 100 µM
same,GI50,[2],4.19 µM
same,TGI,[2],38 µM
same,CC50,[2]; [35],> 100 µM
same,GI50,[3],3.93 µM
same,TGI,[3],40.3 µM
same,CC50,[3]; [35],> 100 µM
same,GI50,[4],12.7 µM
same,TGI,[4],> 100 µM
same,CC50,[4]; [35],> 100 µM
same,GI50,[5],41 µM
same,TGI,[5],> 100 µM
same,CC50,[5]; [35],> 100 µM
same,GI50,[6],30.6 µM
same,TGI,[6],> 100 µM
same,CC50,[6]; [35],> 100 µM
same,GI50,[7],16.3 µM
same,TGI,[7],> 100 µM
same,CC50,[7]; [35],> 100 µM
same,GI50,[8],14.5 µM
same,TGI,[8],> 100 µM
same,CC50,[8]; [35],> 100 µM
same,GI50,[9],7.99 µM
same,TGI,[9],39.4 µM
same,CC50,[9]; [35],> 100 µM
same,GI50,[10],6.08 µM
same,TGI,[10],> 100 µM
same,CC50,[10]; [35],> 100 µM
same,GI50,[11],4.05 µM
same,TGI,[11],> 100 µM
same,CC50,[11]; [35],> 100 µM
same,GI50,[12],15.8 µM
same,TGI,[12],> 100 µM
same,CC50,[12]; [35],> 100 µM
same,GI50,[13],18.4 µM
same,TGI,[13],56.6 µM
same,CC50,[13]; [35],> 100 µM
same,GI50,[14],> 100 µM
same,TGI,[14],> 100 µM
same,CC50,[14]; [35],> 100 µM
same,GI50,[15],66.6 µM
same,TGI,[15],> 100 µM
same,CC50,[15]; [35],> 100 µM
same,GI50,[16],4.7 µM
same,TGI,[16],31.1 µM
same,CC50,[16]; [35],> 100 µM
same,GI50,[17],16.1 µM
same,TGI,[17],> 100 µM
same,CC50,[17]; [35],> 100 µM
same,GI50,[18],16.8 µM
same,TGI,[18],> 100 µM
same,CC50,[18]; [35],> 100 µM
same,GI50,[19],3.82 µM
same,TGI,[19],> 100 µM
same,CC50,[19]; [35],> 100 µM
same,GI50,[20],7.47 µM
same,TGI,[20],37.6 µM
same,CC50,[20]; [35],> 100 µM
same,GI50,[21],7.14 µM
same,TGI,[21],> 100 µM
same,CC50,[21]; [35],> 100 µM
same,GI50,[22],8.2 µM
same,TGI,[22],> 100 µM
same,CC50,[22]; [35],> 100 µM
same,GI50,[23],3.06 µM
same,TGI,[23],> 100 µM
same,CC50,[23]; [35],> 100 µM
same,GI50,[24],3.2 µM
same,TGI,[24],35.3 µM
same,CC50,[24]; [35],> 100 µM
same,GI50,[25],1.98 µM
same,TGI,[25],> 100 µM
same,CC50,[25]; [35],> 100 µM
same,GI50,[26],3.24 µM
same,TGI,[26],32.3 µM
same,CC50,[26]; [35],> 100 µM
same,GI50,[27],3.68 µM
same,TGI,[27],12.9 µM
same,CC50,[27]; [35],76.7 µM
same,GI50,[28],3.36 µM
same,TGI,[28],89.6 µM
same,CC50,[28]; [35],> 100 µM
same,GI50,[29],3.39 µM
same,TGI,[29],22.3 µM
same,CC50,[29]; [35],> 100 µM
same,GI50,[30],3.56 µM
same,TGI,[30],> 100 µM
same,CC50,[30]; [35],> 100 µM
same,GI50,[31],1.33 µM
same,TGI,[31],> 100 µM
same,CC50,[31]; [35],> 100 µM
same,GI50,[32],1.37 µM
same,TGI,[32],> 100 µM
same,CC50,[32]; [35],> 100 µM
same,GI50,[33],3.25 µM
same,TGI,[33],13.7 µM
same,CC50,[33]; [35],37.9 µM
same,GI50,[34],3.98 µM
same,TGI,[34],66.1 µM
same,CC50,[34]; [35],> 100 µM
